{
  "source": "patent US20240374609A1",
  "about": "“NITROSAMINE IMPURITY, VARENICLINE PHARMACEUTICAL COMPOSITION CAPABLE OF REDUCING GENERATION OF NITROSAMINE IMPURITIES AND PREPARATION AND USE THEREOF” (VIWIT PHARMACEUTICALCO., LTD., priority 2021, published 2024)",
  "key": {"[1]": {"tested_on": "Salmonella Typhimurium TA97a", "experiment": "Ames test, plate incorporation method, TA97a", "type": "cell-based", "protocol": "(§1) Salmonella Typhimurium TA97a, TA98, TA100, TA102, and TA1535 from MOLT OX, USA, were purchased from Shanghai Bioplus Biotech.\n(§2) Rat liver S9 from Shanghai Bioplus Biotech. Co., Ltd.\n(§3) The experiments were performed using the plate incorporation method.\n(§4) Dose selection: The experiments were performed using 5 mg, 2.5 mg, 1.25 mg, 0.625 mg, 0.3125 mg, and 0.15625 mg per dish.\n(§5) 0.1 ml of frozen bacterial solutions TA97a, TA98, TA100, TA102 and TA1535 were inoculated into the 10 ml nutrient broth mediums respectively, and cultured at 37° C. (100/min) for 10 h with shaking (100 times/min). 2.0 ml of top layer medium containing 0.5 mmol/L histidine −0.5 mmol/L biotin was dispensed into test tubes, sterilized by 0.103 MPa for 20 min, and kept in a water bath at 50° C. Then, 0.1 ml of the test substance solution, 0.5 ml of the S9 mixture (when metabolic activation was required) and 0.1 ml of the bacterial solution were added into each tube successively, mixed sufficiently, and poured into the bottom layer agar plates quickly. Then, the plates were turned to distribute even. After being placed horizontally for condensation and solidification, the plates were inverted and incubated in an incubator at 37° C. for 48 h, and the number of reverse mutation colonies per dish was counted. Three parallel plates of each dose were made, containing the spontaneous reverse mutation group, the solvent control group and the positive control group.\n(§6) The data were expressed as means±standards deviation (x±s), and SPSS 19.0 was used for calculation of data analysis.\n(§7) If the test substance tested by the above test strain is negative both with and without S9, then the test substance is determined to be mutagenic negative."}, "[2]": {"tested_on": "Salmonella Typhimurium TA98", "experiment": "Ames test, plate incorporation method, TA98", "type": "cell-based", "protocol": "as §1, §2, §3, §4, §5, §6, §7"}, "[3]": {"tested_on": "Salmonella Typhimurium TA100", "experiment": "Ames test, plate incorporation method, TA100", "type": "cell-based", "protocol": "as §1, §2, §3, §4, §5, §6, §7"}, "Tetranychus cinnabarinus": {"tested_on": "Tetranychus cinnabarinus", "experiment": "Leaf-disc spraying method, insecticidal activity", "type": "in vivo", "settings": "500 mg/L, spray 2.5 mL, investigated after 24 h, blank control 0%, read-out: mortality rate", "protocol": "The bactericidal or insecticidal activity of the nitrosamine impurity compound P08 was determined according to the existing technical standards or specifications (e.g., Chinese agricultural industry standard NY/T 1156.4-2006, pesticides guidelines for laboratory bioactivity tests, bactericide, part 4: potted plant test for fungicide control of powdery mildew on wheat; Chinese agricultural industry standard NY/T 1156.5-2006, pesticides guidelines for laboratory bioactivity tests, bactericide, part 5: detached leaf test for fungicide inhibition of Rhizoctonia solani on faba bean; Chinese agricultural industry standard […], pesticides guidelines for laboratory bioactivity tests, insecticide, part 6: the immersion test for insecticide activity; Chinese agricultural industry standard NY/T 1154.9-2008, pesticides guidelines for laboratory bioactivity tests, insecticide, part 9: spraying method).\nAccording to the Chinese agricultural industry standard NYT 1154.13-2008, pesticides guidelines for laboratory bioactivity tests, insecticide, part 13: leaf-disc spraying method, the Tetranychus cinnabarinus were inoculated on a leaf-disc of faba bean as the biological test materials. […]"}, "[4]": {"experiment": "Stability of solutions (control solution and sample solution at room temperature)", "type": "physicochemical", "protocol": "Control stock solution: 7.5 mg of the nitrosamine compound P08 (purity≥98%) was weighed into a 100 ml volumetric flask, dissolved and diluted with acetonitrile to volume (volumetric solution 1A). 1.0 mL of the volumetric solution 1A was added into a 100 ml volumetric flask, and diluted with acetonitrile to volume (volumetric solution 1B). 1.0 mL of the volumetric solution 1B was added into a 20 ml volumetric flask, and diluted with acetonitrile to volume to obtain the control stock solution.\nControl solution: 1.0 mL of the control stock solution was added into a 10 ml volumetric flask, and diluted with acetonitrile to volume to obtain the control solution.\nSample solution: 10 varenicline tartrate tablets were placed in a 10 ml volumetric flask, added with 3 mL of purified water and 3 mL of acetonitrile, sonicated for 30s, then diluted with acetonitrile to volume and mixed evenly.\nThe control solution and the sample solution were placed at room temperature, then injected for analysis at intervals of 0, 2, 4, 6, 8, 10, 12 hours, and the peak area ratio of each time point to the zero point (i.e., peak area change rate) was calculated."}},
  "data": [
    {"smiles": "O=NN1CC2CC(C1)c1cc3nccnc3cc12", "note": "[P08]", "values": [
      {"measurement": "number of reverse mutation colonies per dish (x ± s)", "setting": "[1]; +S9, 156.25 μg/dish", "result": "209 ± 16"},
      {"measurement": "number of reverse mutation colonies per dish (x ± s)", "setting": "[1]; +S9, 312.5 μg/dish", "result": "248 ± 13"},
      {"measurement": "number of reverse mutation colonies per dish (x ± s)", "setting": "[1]; +S9, 625 μg/dish", "result": "242 ± 17"},
      {"measurement": "number of reverse mutation colonies per dish (x ± s)", "setting": "[1]; +S9, 1250 μg/dish", "result": "279 ± 5"},
      {"measurement": "number of reverse mutation colonies per dish (x ± s)", "setting": "[1]; +S9, 2500 μg/dish", "result": "297 ± 8"},
      {"measurement": "number of reverse mutation colonies per dish (x ± s)", "setting": "[1]; +S9, 5000 μg/dish", "result": "310 ± 19"},
      {"measurement": "number of reverse mutation colonies per dish (x ± s)", "setting": "[1]; −S9, 156.25 μg/dish", "result": "158 ± 11"},
      {"measurement": "number of reverse mutation colonies per dish (x ± s)", "setting": "[1]; −S9, 312.5 μg/dish", "result": "175 ± 6"},
      {"measurement": "number of reverse mutation colonies per dish (x ± s)", "setting": "[1]; −S9, 625 μg/dish", "result": "175 ± 12"},
      {"measurement": "number of reverse mutation colonies per dish (x ± s)", "setting": "[1]; −S9, 1250 μg/dish", "result": "160 ± 15"},
      {"measurement": "number of reverse mutation colonies per dish (x ± s)", "setting": "[1]; −S9, 2500 μg/dish", "result": "165 ± 10"},
      {"measurement": "number of reverse mutation colonies per dish (x ± s)", "setting": "[1]; −S9, 5000 μg/dish", "result": "159 ± 5"},
      {"measurement": "number of reverse mutation colonies per dish (x ± s)", "setting": "[2]; TA98, +S9, 156.25 μg/dish", "result": "33 ± 6"},
      {"measurement": "number of reverse mutation colonies per dish (x ± s)", "setting": "[2]; TA98, +S9, 312.5 μg/dish", "result": "34 ± 1"},
      {"measurement": "number of reverse mutation colonies per dish (x ± s)", "setting": "[2]; TA98, +S9, 625 μg/dish", "result": "35 ± 2"},
      {"measurement": "number of reverse mutation colonies per dish (x ± s)", "setting": "[2]; TA98, +S9, 1250 μg/dish", "result": "41 ± 6"},
      {"measurement": "number of reverse mutation colonies per dish (x ± s)", "setting": "[2]; TA98, +S9, 2500 μg/dish", "result": "59 ± 4"},
      {"measurement": "number of reverse mutation colonies per dish (x ± s)", "setting": "[2]; TA98, +S9, 5000 μg/dish", "result": "53 ± 6"},
      {"measurement": "number of colonies relative to that of the solvent control", "setting": "[2]; TA98, adding S9, 2500 μg/dish", "result": "more than twice"},
      {"measurement": "number of reverse mutation colonies per dish (x ± s)", "setting": "[2]; TA98, −S9, 156.25 μg/dish", "result": "29 ± 2"},
      {"measurement": "number of reverse mutation colonies per dish (x ± s)", "setting": "[2]; TA98, −S9, 312.5 μg/dish", "result": "27 ± 3"},
      {"measurement": "number of reverse mutation colonies per dish (x ± s)", "setting": "[2]; TA98, −S9, 625 μg/dish", "result": "28 ± 2"},
      {"measurement": "number of reverse mutation colonies per dish (x ± s)", "setting": "[2]; TA98, −S9, 1250 μg/dish", "result": "30 ± 3"},
      {"measurement": "number of reverse mutation colonies per dish (x ± s)", "setting": "[2]; TA98, −S9, 2500 μg/dish", "result": "31 ± 3"},
      {"measurement": "number of reverse mutation colonies per dish (x ± s)", "setting": "[2]; TA98, −S9, 5000 μg/dish", "result": "32 ± 2"},
      {"measurement": "number of reverse mutation colonies per dish (x ± s)", "setting": "[3]; TA100, +S9, 156.25 μg/dish", "result": "225 ± 9"},
      {"measurement": "number of reverse mutation colonies per dish (x ± s)", "setting": "[3]; TA100, +S9, 312.5 μg/dish", "result": "234 ± 6"},
      {"measurement": "number of reverse mutation colonies per dish (x ± s)", "setting": "[3]; TA100, +S9, 625 μg/dish", "result": "271 ± 11"},
      {"measurement": "number of reverse mutation colonies per dish (x ± s)", "setting": "[3]; TA100, +S9, 1250 μg/dish", "result": "287 ± 13"},
      {"measurement": "number of reverse mutation colonies per dish (x ± s)", "setting": "[3]; TA100, +S9, 2500 μg/dish", "result": "364 ± 19"},
      {"measurement": "number of reverse mutation colonies per dish (x ± s)", "setting": "[3]; TA100, +S9, 5000 μg/dish", "result": "378 ± 18"},
      {"measurement": "number of reverse mutation colonies per dish (x ± s)", "setting": "[3]; TA100, −S9, 156.25 μg/dish", "result": "218 ± 20"},
      {"measurement": "number of reverse mutation colonies per dish (x ± s)", "setting": "[3]; TA100, −S9, 312.5 μg/dish", "result": "234 ± 31"},
      {"measurement": "number of reverse mutation colonies per dish (x ± s)", "setting": "[3]; TA100, −S9, 625 μg/dish", "result": "224 ± 3"},
      {"measurement": "number of reverse mutation colonies per dish (x ± s)", "setting": "[3]; TA100, −S9, 1250 μg/dish", "result": "220 ± 10"},
      {"measurement": "number of reverse mutation colonies per dish (x ± s)", "setting": "[3]; TA100, −S9, 2500 μg/dish", "result": "193 ± 25"},
      {"measurement": "number of reverse mutation colonies per dish (x ± s)", "setting": "[3]; TA100, −S9, 5000 μg/dish", "result": "206 ± 25"},
      {"measurement": "mortality at 500 µg/mL", "setting": "Tetranychus cinnabarinus", "result": 19.6, "unit": "%"},
      {"measurement": "peak area change rate within 12 hours", "setting": "[4]; control solution (acetonitrile)", "result": "< 12", "unit": "%"},
      {"measurement": "peak area change rate within 12 hours", "setting": "[4]; sample solution (tablets in water/acetonitrile)", "result": "< 3.5", "unit": "%"}
    ]}
  ]
}
